The source of these data is patent US11453703B2, “Heterotandem bicyclic peptide complexes” (BicycleTX Limited, priority 2018, dated 2022).

One data set addresses human EphA2 protein (Homo sapiens, UniProt P29317). As to the kind of experiment: EphA2 Biacore (SPR) binding assay. Particulars: biotinylated human EphA2, 25° C. The method, then:
Biacore experiments were performed to determine ka (M^−1s^−1), kd (s^−1), KD (nM) values of heterotandem peptides binding to human EphA2 protein.
EphA2 were biotinylated with EZ-Link™ Sulfo-NHS-LC-Biotin for 1 hour in 4 mM sodium acetate, 100 mM NaCl, pH 5.4 with a 3× molar excess of biotin over protein. The degree of labelling was determined using a Fluorescence Biotin Quantification Kit (Thermo) after dialysis of the reaction mixture into PBS. For analysis of peptide binding, a Biacore T200 instrument was used with a XanTec CMD500D chip. Streptavidin was immobilized on the chip using standard amine-coupling chemistry at 25° C. with HBS-N (10 mM HEPES, 0.15 M NaCl, pH 7.4) as the running buffer. Briefly, the carboxymethyl dextran surface was activated with a 7 min injection of a 1:1 ratio of 0.4 M 1-ethyl-3-(3-dimethylaminopropyl) carbodiimide hydrochloride (EDC)/0.1 M N-hydroxy succinimide (NHS) at a flow rate of 10 it/min. For capture of streptavidin, the protein was diluted to 0.2 mg/ml in 10 mM sodium acetate (pH 4.5) and captured by injecting 120 μl onto the activated chip surface. Residual activated groups were blocked with a 7 min injection of 1 M ethanolamine (pH 8.5):HBS-N (1:1). Buffer was changed to PBS/0.05% Tween 20 and biotinylated EphA2 was captured to a level of 500-1500 RU using a dilution of protein to 0.2 μM in buffer. A dilution series of the peptides was prepared in this buffer with a final DMSO concentration of 0.5% with a top peptide concentration was 50 or 100 nM and 6 further 2-fold dilutions. The SPR analysis was run at 25° C. at a flow rate of 90 μl/min with 60 seconds association and 900-1200 seconds dissociation. Data were corrected for DMSO excluded volume effects. All data were double-referenced for blank injections and reference surface using standard processing procedures and data processing and kinetic fitting were performed using Scrubber software, version 2.0c (BioLogic Software). Data were fitted using simple 1:1 binding model allowing for mass transport effects where appropriate.
(Surface plasmon resonance follows binding to a sensor surface in real time, without labels.)

Data set [1] has as its target T1, CD137 (Homo sapiens, UniProt Q07011). As to the kind of experiment: CD137 Biacore (SPR) binding assay. Set-up: purchased R&D systems. The conditions noted are these: biotinylated human CD137, 25° C. On the procedure:
Biacore experiments were performed to determine ka (M^−1s^−1), kd (s^−1), KD (nM) values of heterotandem peptides binding to human CD137 protein. […] The protein was desalted to remove uncoupled biotin using spin columns into PBS.
For analysis of peptide binding, a Biacore T200 or a Biacore 3000 instrument was used with a XanTec CMD500D chip. Streptavidin was immobilized on the chip using standard amine-coupling chemistry at 25° C. with HBS-N (10 mM HEPES, 0.15 M NaCl, pH 7.4) as the running buffer. Briefly, the carboxymethyl dextran surface was activated with a 7 min injection of a 1:1 ratio of 0.4 M 1-ethyl-3-(3-dimethylaminopropyl) carbodiimide hydrochloride (EDC)/0.1 M N-hydroxy succinimide (NHS) at a flow rate of 10 μl/min. For capture of streptavidin, the protein was diluted to 0.2 mg/ml in 10 mM sodium acetate (pH 4.5) and captured by injecting 120 μl of onto the activated chip surface. Residual activated groups were blocked with a 7 min injection of 1 M ethanolamine (pH 8.5) and biotinylated CD137 captured to a level of 270-1500 RU. Buffer was changed to PBS/0.05% Tween 20 and a dilution series of the peptides was prepared in this buffer with a final DMSO concentration of 0.5%. The top peptide concentration was 500 nM with 6 further 2-fold or 3-fold dilutions. The SPR analysis was run at 25° C. at a flow rate of 90 μl/min with 60 seconds association and 900 seconds dissociation. After each cycle a regeneration step (10 μl of 10 mM glycine pH 2) was employed. Data were corrected for DMSO excluded volume effects as needed. All data were double-referenced for blank injections and reference surface using standard processing procedures and data processing and kinetic fitting were performed using Scrubber software, version 2.0c (BioLogic Software). Data were fitted using simple 1:1 binding model allowing for mass transport effects where appropriate.

In data set [2] the target is T1, CD137. As to the kind of experiment: CD137 reporter assay, co-culture with EphA2 tumour cells. It is filed as cell-based. Set-up: host or cells: Jurkat reporter cells. The conditions noted are these: tumour target EphA2, co-culture with SC-OV-3, 6 h. The method, boiled down: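 Jurkat CD137 reporter cells co-cultured with tumour cells and serially diluted test articles in RPMI-1640 + 1% FBS, 6 h at 37 °C, 5% CO2. Luminescence read after Bio-Glo; fold change over cells-only background fitted log(agonist) vs response for EC50 (nM) and maximal fold induction.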

The Kd is the equilibrium constant for the complex coming apart. One may read the EC50 as the concentration giving half of the maximal effect.

Chain of human EphA2 protein (P29317 24-976): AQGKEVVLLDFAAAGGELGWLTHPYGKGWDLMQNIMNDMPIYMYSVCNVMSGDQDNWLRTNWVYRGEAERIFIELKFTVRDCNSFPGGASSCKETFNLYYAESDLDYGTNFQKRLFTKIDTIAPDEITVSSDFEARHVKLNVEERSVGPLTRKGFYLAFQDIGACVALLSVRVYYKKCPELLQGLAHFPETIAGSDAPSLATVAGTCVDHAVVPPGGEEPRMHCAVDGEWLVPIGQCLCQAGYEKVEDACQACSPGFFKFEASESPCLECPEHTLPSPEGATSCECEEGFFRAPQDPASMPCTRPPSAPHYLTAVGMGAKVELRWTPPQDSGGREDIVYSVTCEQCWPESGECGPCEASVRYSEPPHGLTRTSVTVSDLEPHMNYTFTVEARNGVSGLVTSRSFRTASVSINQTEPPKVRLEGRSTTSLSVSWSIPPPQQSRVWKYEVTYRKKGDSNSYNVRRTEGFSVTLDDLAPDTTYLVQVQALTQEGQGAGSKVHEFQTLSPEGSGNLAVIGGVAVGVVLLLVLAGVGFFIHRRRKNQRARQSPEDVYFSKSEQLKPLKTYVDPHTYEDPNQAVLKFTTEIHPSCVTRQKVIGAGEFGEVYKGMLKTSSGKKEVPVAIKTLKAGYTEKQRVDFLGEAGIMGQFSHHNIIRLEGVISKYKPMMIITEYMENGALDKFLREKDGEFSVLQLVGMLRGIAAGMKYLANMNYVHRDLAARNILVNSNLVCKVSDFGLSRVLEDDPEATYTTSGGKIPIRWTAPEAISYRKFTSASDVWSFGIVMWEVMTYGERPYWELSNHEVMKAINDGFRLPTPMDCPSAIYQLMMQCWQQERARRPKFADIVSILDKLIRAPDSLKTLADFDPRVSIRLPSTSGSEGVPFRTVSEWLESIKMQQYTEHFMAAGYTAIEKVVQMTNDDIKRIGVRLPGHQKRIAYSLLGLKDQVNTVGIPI
T1 sequence (Q07011 24-255): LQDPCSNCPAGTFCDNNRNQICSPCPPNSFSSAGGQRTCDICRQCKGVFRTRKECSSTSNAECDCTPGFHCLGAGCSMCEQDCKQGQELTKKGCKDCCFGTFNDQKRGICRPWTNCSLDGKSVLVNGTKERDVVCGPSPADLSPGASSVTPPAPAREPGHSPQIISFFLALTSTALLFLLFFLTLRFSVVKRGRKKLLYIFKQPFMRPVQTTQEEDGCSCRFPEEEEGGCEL

Molecule `CCCC[C@@H]1NC(=O)[C@H](Cc2ccc(O)cc2)NC(=O)[C@@H]2CCCN2C(=O)[C@H](CC(=O)O)NC(=O)[C@H](C)NC(=O)[C@H](Cc2ccccc2)NC(=O)[C@@H]2CSCCC(=O)N3CN(CN(C3)C(=O)CCSC[C@@H](C(=O)N[C@@H](CNC(=O)CCc3cn(CCCNC(=O)CN(C)C(=O)CN(C)C(=O)CN(C)C(=O)CN(C)C(=O)CN(C)C(=O)CCOCCOCCOCCOCCOCCOCCOCCOCCOCCOCCOCCOCCOCCOCCOCCNC(=O)NCCC(=O)N(C)CC(=O)N(C)CC(=O)N(C)CC(=O)N(C)CC(=O)N(C)CC(=O)N(C)CC(=O)N(C)CC(=O)N(C)CC(=O)N(C)CC(=O)N(C)CC(=O)N[C@@H](C)C(=O)N[C@@H](CCCCNC(=N)N)C(=O)N[C@@H](CC(=O)O)C(=O)N[C@H]4CSCCC(=O)N5CN6CN(C5)C(=O)CCSC[C@H](NC(=O)[C@H](CC(C)C)NC(=O)[C@@H]5CCCN5C(=O)[C@H](CC(N)=O)NC(=O)[C@H](C(C)C)NC(=O)[C@H](CC(C)C)NC(=O)[C@@H]5C[C@@H](O)CN5C4=O)C(=O)N[C@@H](CC(C)C)C(=O)N[C@@H](Cc4c[nH]cn4)C(=O)N4CCC[C@H]4C(=O)N[C@H](CC(=O)O)C(=O)N[C@@H](Cc4c[nH]c5ccccc45)C(=O)N[C@@H](CCCCNC(=N)N)C(=O)N[C@H](C(N)=O)CSCCC6=O)nn3)C(N)=O)NC1=O)C(=O)CCSC[C@H](NC(=O)[C@H](C)NC(C)=O)C(=O)N[C@@H]([C@@H](C)CC)C(=O)N[C@@H](CCC(=O)O)C(=O)N[C@@H](CCC(=O)O)C(=O)NCC(=O)N[C@@H](CCC(N)=O)C(=O)N[C@@H](Cc1ccc(O)cc1)C(=O)N2` [BCY9655] gave an equilibrium dissociation constant (Kd) at human EphA2 protein of 1.33 nM. Further, the dissociation constant (Kd) at CD137 [1] was determined as 199 nM. Besides, at CD137 [2], a half-maximal effect (EC50) was put at 4.1 nM and the “Fold Induction over Background” value is given as 6 fold.

Turning to `CCCC[C@@H]1NC(=O)[C@H](Cc2ccc(O)cc2)NC(=O)[C@@H]2CCCN2C(=O)[C@H](CC(=O)O)NC(=O)[C@H](C)NC(=O)[C@H](Cc2ccccc2)NC(=O)[C@@H]2CSCCC(=O)N3CN(CN(C3)C(=O)CCSC[C@@H](C(=O)N[C@@H](CNC(=O)CCc3cn(CCCNC(=O)CN(C)C(=O)CN(C)C(=O)CN(C)C(=O)CN(C)C(=O)CN(C)C(=O)COCCOCCOCCOCCOCCNC(=O)NCCC(=O)N(C)CC(=O)N(C)CC(=O)N(C)CC(=O)N(C)CC(=O)N(C)CC(=O)N(C)CC(=O)N(C)CC(=O)N(C)CC(=O)N(C)CC(=O)N(C)CC(=O)N[C@@H](C)C(=O)N[C@@H](CCCCNC(=N)N)C(=O)N[C@@H](CC(=O)O)C(=O)N[C@H]4CSCCC(=O)N5CN6CN(C5)C(=O)CCSC[C@H](NC(=O)[C@H](CC(C)C)NC(=O)[C@@H]5CCCN5C(=O)[C@H](CC(N)=O)NC(=O)[C@H](C(C)C)NC(=O)[C@H](CC(C)C)NC(=O)[C@@H]5C[C@@H](O)CN5C4=O)C(=O)N[C@@H](CC(C)C)C(=O)N[C@@H](Cc4c[nH]cn4)C(=O)N4CCC[C@H]4C(=O)N[C@H](CC(=O)O)C(=O)N[C@@H](Cc4c[nH]c5ccccc45)C(=O)N[C@@H](CCCCNC(=N)N)C(=O)N[C@H](C(N)=O)CSCCC6=O)nn3)C(N)=O)NC1=O)C(=O)CCSC[C@H](NC(=O)[C@H](C)NC(C)=O)C(=O)N[C@@H]([C@@H](C)CC)C(=O)N[C@@H](CCC(=O)O)C(=O)N[C@@H](CCC(=O)O)C(=O)NCC(=O)N[C@@H](CCC(N)=O)C(=O)N[C@@H](Cc1ccc(O)cc1)C(=O)N2` [BCY9658], the equilibrium dissociation constant (Kd) on human EphA2 protein worked out at 1.9 nM; at CD137 [1] it was 152 nM. A half-maximal effect on CD137 [2] (EC50) was put at 6.2 nM. Further, on CD137 [2], the “Fold Induction over Background” value is given as 11 fold.

The molecule `CCCC[C@@H]1NC(=O)[C@H](Cc2ccc(O)cc2)NC(=O)[C@@H]2CCCN2C(=O)[C@H](CC(=O)O)NC(=O)[C@H](C)NC(=O)[C@H](Cc2ccccc2)NC(=O)[C@@H]2CSCCC(=O)N3CN(CN(C3)C(=O)CCSC[C@@H](C(=O)N[C@@H](CNC(=O)CCc3cn(CCOCCOCCOCCOCCOCCOCCOCCOCCOCCOCCOCCOCCOCCOCCOCCOCCOCCOCCOCCOCCOCCOCCOCCNC(=O)NCCC(=O)N(C)CC(=O)N(C)CC(=O)N(C)CC(=O)N(C)CC(=O)N(C)CC(=O)N(C)CC(=O)N(C)CC(=O)N(C)CC(=O)N(C)CC(=O)N(C)CC(=O)N[C@@H](C)C(=O)N[C@@H](CCCCNC(=N)N)C(=O)N[C@@H](CC(=O)O)C(=O)N[C@H]4CSCCC(=O)N5CN6CN(C5)C(=O)CCSC[C@H](NC(=O)[C@H](CC(C)C)NC(=O)[C@@H]5CCCN5C(=O)[C@H](CC(N)=O)NC(=O)[C@H](C(C)C)NC(=O)[C@H](CC(C)C)NC(=O)[C@@H]5C[C@@H](O)CN5C4=O)C(=O)N[C@@H](CC(C)C)C(=O)N[C@@H](Cc4c[nH]cn4)C(=O)N4CCC[C@H]4C(=O)N[C@H](CC(=O)O)C(=O)N[C@@H](Cc4c[nH]c5ccccc45)C(=O)N[C@@H](CCCCNC(=N)N)C(=O)N[C@H](C(N)=O)CSCCC6=O)nn3)C(N)=O)NC1=O)C(=O)CCSC[C@H](NC(=O)[C@H](C)NC(C)=O)C(=O)N[C@@H]([C@@H](C)CC)C(=O)N[C@@H](CCC(=O)O)C(=O)N[C@@H](CCC(=O)O)C(=O)NCC(=O)N[C@@H](CCC(N)=O)C(=O)N[C@@H](Cc1ccc(O)cc1)C(=O)N2` [BCY9648] had an equilibrium dissociation constant (Kd) at human EphA2 protein of 1.75 nM. Binding on CD137 [1] was put at a Kd of 202 nM. Also, on CD137 [2], the concentration for a half-maximal effect (EC50) amounted to 9.3 nM and the “Fold Induction over Background” value was found to be 20 fold.

On to `CCCC[C@@H]1NC(=O)[C@H](Cc2ccc(O)cc2)NC(=O)[C@@H]2CCCN2C(=O)[C@H](CC(=O)O)NC(=O)[C@H](C)NC(=O)[C@H](Cc2ccccc2)NC(=O)[C@@H]2CSCCC(=O)N3CN(CN(C3)C(=O)CCSC[C@@H](C(=O)N[C@@H](CNC(=O)CCc3cn(CCCNC(=O)CN(C)C(=O)CN(C)C(=O)CN(C)C(=O)CN(C)C(=O)CN(C)C(=O)CN(C)C(=O)CN(C)C(=O)CN(C)C(=O)CN(C)C(=O)CN(C)C(=O)COCCOCCOCCOCCOCCOCCOCCOCCOCCOCCNC(=O)NCCC(=O)N(C)CC(=O)N(C)CC(=O)N(C)CC(=O)N(C)CC(=O)N(C)CC(=O)N(C)CC(=O)N(C)CC(=O)N(C)CC(=O)N(C)CC(=O)N(C)CC(=O)N[C@@H](C)C(=O)N[C@@H](CCCCNC(=N)N)C(=O)N[C@@H](CC(=O)O)C(=O)N[C@H]4CSCCC(=O)N5CN6CN(C5)C(=O)CCSC[C@H](NC(=O)[C@H](CC(C)C)NC(=O)[C@@H]5CCCN5C(=O)[C@H](CC(N)=O)NC(=O)[C@H](C(C)C)NC(=O)[C@H](CC(C)C)NC(=O)[C@@H]5C[C@@H](O)CN5C4=O)C(=O)N[C@@H](CC(C)C)C(=O)N[C@@H](Cc4c[nH]cn4)C(=O)N4CCC[C@H]4C(=O)N[C@H](CC(=O)O)C(=O)N[C@@H](Cc4c[nH]c5ccccc45)C(=O)N[C@@H](CCCCNC(=N)N)C(=O)N[C@H](C(N)=O)CSCCC6=O)nn3)C(N)=O)NC1=O)C(=O)CCSC[C@H](NC(=O)[C@H](C)NC(C)=O)C(=O)N[C@@H]([C@@H](C)CC)C(=O)N[C@@H](CCC(=O)O)C(=O)N[C@@H](CCC(=O)O)C(=O)NCC(=O)N[C@@H](CCC(N)=O)C(=O)N[C@@H](Cc1ccc(O)cc1)C(=O)N2` [BCY9656], for which the Kd on human EphA2 protein turned out to be 0.75 nM; on CD137 [1] it was 159 nM. Moreover, it took 1.1 nM to reach a half-maximal effect at CD137 [2] (EC50). In addition, the “Fold Induction over Background” value at CD137 [2] stood at 3 fold.
